Measurements as given in the NIST ThermoML archive (doi:10.1016/j.jct.2015.02.020).
Numbers after ± are expanded uncertainties.

What was measured:
[1] = refractive index (Na D-line) (dimensionless); conditions: 101.33 kPa, Liquid, Standard Abbe refractometry
[2] = 101.33 kPa, Liquid; for viscosity: Falling or rolling sphere viscometry; for speed of sound: Sing-around technique in a fixed-path interferometer; for mass density: Vibrating tube method

CC[n+]1ccc(C)cc1.O=S(=O)([N-]S(=O)(=O)C(F)(F)F)C(F)(F)F
Conditions | mass density, [2] [kg/m3] | refractive index, [1] | speed of sound, [2] [m/s] | viscosity, [2] [mPa·s]
293.15 K | 1491.6 ± 0.67 | 1.44562 ± 0.00037 | 1275.3 ± 1.5 | 40.01 ± 0.87
298.15 K | 1486.67 ± 0.66 | 1.44412 ± 0.00037 | 1263.8 ± 1.5 | 32.83 ± 0.72
303.15 K | 1481.76 ± 0.66 | 1.4426 ± 0.00037 | 1252.4 ± 1.5 | 27.39 ± 0.6
308.15 K | 1476.87 ± 0.65 | 1.44108 ± 0.00037 | 1241.2 ± 1.5 | 23.17 ± 0.51
313.15 K | 1472 ± 0.65 | 1.43954 ± 0.00037 | 1230.1 ± 1.5 | 19.8 ± 0.43
318.15 K | 1467.15 ± 0.64 | 1.43794 ± 0.00037 | 1219.2 ± 1.5 | 17.17 ± 0.37
323.15 K | 1462.32 ± 0.64 | 1.43641 ± 0.00037 | 1208.3 ± 1.5 | 15 ± 0.33
328.15 K | 1457.52 ± 0.63 | 1.43493 ± 0.00037 | 1197.3 ± 1.5 | 13.26 ± 0.29
333.15 K | 1452.73 ± 0.63 | 1.43344 ± 0.00037 | 1187 ± 1.5 | 11.82 ± 0.26
338.15 K | 1447.96 ± 0.62 | 1.43195 ± 0.00037 | 1176.5 ± 1.5 | 10.57 ± 0.23
343.15 K | 1443.21 ± 0.62 | 1.43047 ± 0.00037 | 1166.1 ± 1.5 | 9.51 ± 0.21

CC[n+]1cccc(C)c1.O=S(=O)([N-]S(=O)(=O)C(F)(F)F)C(F)(F)F
Conditions | mass density, [2] [kg/m3] | refractive index, [1] | speed of sound, [2] [m/s] | viscosity, [2] [mPa·s]
293.15 K | 1493.4 ± 0.67 | 1.44503 ± 0.00037 | 1270.6 ± 1.5 | 47.85 ± 1.1
298.15 K | 1488.54 ± 0.66 | 1.44355 ± 0.00037 | 1259.6 ± 1.5 | 39.08 ± 0.85
303.15 K | 1483.69 ± 0.66 | 1.44204 ± 0.00037 | 1248.5 ± 1.5 | 32.33 ± 0.71
308.15 K | 1478.86 ± 0.65 | 1.44056 ± 0.00037 | 1237.5 ± 1.5 | 27.12 ± 0.59
313.15 K | 1474.05 ± 0.65 | 1.43904 ± 0.00037 | 1226.7 ± 1.5 | 23.06 ± 0.5
318.15 K | 1469.26 ± 0.65 | 1.43751 ± 0.00037 | 1216 ± 1.5 | 19.81 ± 0.43
323.15 K | 1464.49 ± 0.64 | 1.43599 ± 0.00037 | 1205.4 ± 1.5 | 17.32 ± 0.38
328.15 K | 1459.74 ± 0.64 | 1.43451 ± 0.00037 | 1194.9 ± 1.5 | 15.15 ± 0.33
333.15 K | 1455.01 ± 0.63 | 1.43304 ± 0.00037 | 1184.6 ± 1.5 | 13.39 ± 0.29
338.15 K | 1450.3 ± 0.63 | 1.4316 ± 0.00037 | 1174.3 ± 1.5 | 11.92 ± 0.26
343.15 K | 1445.6 ± 0.62 | 1.43014 ± 0.00037 | 1164.2 ± 1.5 | 10.67 ± 0.23

CC[n+]1ccccc1C.O=S(=O)([N-]S(=O)(=O)C(F)(F)F)C(F)(F)F
Conditions | mass density, [2] [kg/m3] | refractive index, [1] | speed of sound, [2] [m/s] | viscosity, [2] [mPa·s]
293.15 K | 1510.22 ± 0.69 | 1.44938 ± 0.00037 | 1310.9 ± 1.5 | 97.02 ± 2.8
298.15 K | 1505.35 ± 0.68 | 1.44789 ± 0.00037 | 1299.5 ± 1.5 | 75.84 ± 1.9
303.15 K | 1500.5 ± 0.68 | 1.4464 ± 0.00037 | 1288.5 ± 1.5 | 60.69 ± 1.3
308.15 K | 1495.66 ± 0.67 | 1.44493 ± 0.00037 | 1277.3 ± 1.5 | 49.76 ± 1.1
313.15 K | 1490.85 ± 0.67 | 1.44343 ± 0.00037 | 1266.3 ± 1.5 | 41.04 ± 0.9
318.15 K | 1486.06 ± 0.66 | 1.44181 ± 0.00037 | 1255.4 ± 1.5 | 34.3 ± 0.75
323.15 K | 1481.29 ± 0.66 | 1.44037 ± 0.00037 | 1244.6 ± 1.5 | 29.05 ± 0.63
328.15 K | 1476.54 ± 0.65 | 1.4388 ± 0.00037 | 1234 ± 1.5 | 24.86 ± 0.54
333.15 K | 1471.81 ± 0.65 | 1.43744 ± 0.00037 | 1223.4 ± 1.5 | 21.51 ± 0.47
338.15 K | 1467.11 ± 0.64 | 1.43599 ± 0.00037 | 1213 ± 1.5 | 18.71 ± 0.41
343.15 K | 1462.42 ± 0.64 | 1.43454 ± 0.00037 | 1202.7 ± 1.5 | 16.54 ± 0.36

CC[n+]1ccccc1.O=S(=O)([N-]S(=O)(=O)C(F)(F)F)C(F)(F)F [1-ethylpyridinium bis[(trifluoromethyl)sulfonyl]imide]
Conditions | mass density, [2] [kg/m3] | refractive index, [1] | speed of sound, [2] [m/s] | viscosity, [2] [mPa·s]
293.15 K | 1540.83 ± 0.72 | 1.44227 ± 0.00037 | 1279.1 ± 1.5 | 50.27 ± 1
298.15 K | 1535.84 ± 0.71 | 1.44091 ± 0.00037 | 1268.1 ± 1.5 | 41.08 ± 0.9
303.15 K | 1530.87 ± 0.71 | 1.43939 ± 0.00037 | 1257.1 ± 1.5 | 34.17 ± 0.75
308.15 K | 1525.92 ± 0.7 | 1.43788 ± 0.00037 | 1246.3 ± 1.5 | 28.79 ± 0.63
313.15 K | 1520.99 ± 0.7 | 1.43637 ± 0.00037 | 1235.6 ± 1.5 | 24.58 ± 0.54
318.15 K | 1516.08 ± 0.69 | 1.4349 ± 0.00037 | 1225 ± 1.5 | 21.18 ± 0.46
323.15 K | 1511.2 ± 0.69 | 1.43339 ± 0.00037 | 1214.5 ± 1.5 | 18.48 ± 0.4
328.15 K | 1506.34 ± 0.68 | 1.43193 ± 0.00037 | 1204.2 ± 1.5 | 16.26 ± 0.35
333.15 K | 1501.5 ± 0.68 | 1.43048 ± 0.00037 | 1193.9 ± 1.5 | 14.35 ± 0.31
338.15 K | 1496.67 ± 0.67 | 1.42905 ± 0.00037 | 1183.8 ± 1.5 | 12.79 ± 0.28
343.15 K | 1491.87 ± 0.67 | 1.42762 ± 0.00037 | 1173.8 ± 1.5 | 11.48 ± 0.25
